Test results from patent EP3954371B1, “ANTI-ACETYLCHOLINESTERASE ACTIVE COMPOSITION IN CAULIS MAHONIAE AND SCREENING METHOD THEREFOR AND APPLICATION THEREOF” (Shenzhen Institute for Drug Control (Shenzhen Testing …, priority 2019, dated 2021).

Columns and labels:
AChE [1] = molecular target: T1, AChE (Homo sapiens, UniProt P22303); experiment: synergistic effect of combined active components (FIC) by AChE assay method; format: biochemical; details: for effect of combinations when used as the first alkaloid: first alkaloid diluted stepwise, other alkaloids fixed at IC30; for IC20 / IC80 / IC90 / IC50: first compound diluted, added compounds fixed at IC30, unit not in table; for IC20: read-out: IC Value (Standard Deviation) IC20; for IC80: read-out: IC Value (Standard Deviation) IC80; for IC90: read-out: IC Value (Standard Deviation) IC90; for IC50: read-out: IC Value (Standard Deviation) IC50 (converted)
T1 construct: purchased Sigma
T1 sequence (P22303 32-614): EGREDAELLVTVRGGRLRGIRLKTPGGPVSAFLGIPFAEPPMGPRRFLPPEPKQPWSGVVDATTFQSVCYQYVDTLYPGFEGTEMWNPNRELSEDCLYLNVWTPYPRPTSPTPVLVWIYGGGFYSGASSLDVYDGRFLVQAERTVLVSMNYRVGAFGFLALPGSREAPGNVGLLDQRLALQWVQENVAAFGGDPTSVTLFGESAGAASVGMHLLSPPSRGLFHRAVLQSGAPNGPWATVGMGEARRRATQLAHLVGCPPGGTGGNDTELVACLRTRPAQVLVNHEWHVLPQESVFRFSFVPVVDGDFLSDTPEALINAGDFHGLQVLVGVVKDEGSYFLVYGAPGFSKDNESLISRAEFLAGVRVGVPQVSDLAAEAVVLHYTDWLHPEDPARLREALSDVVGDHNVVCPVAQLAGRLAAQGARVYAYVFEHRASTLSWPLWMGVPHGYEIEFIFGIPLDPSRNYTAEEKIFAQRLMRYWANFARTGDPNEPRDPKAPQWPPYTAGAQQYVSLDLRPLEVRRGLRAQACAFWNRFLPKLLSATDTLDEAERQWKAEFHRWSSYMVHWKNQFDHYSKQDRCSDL
Method: One pharmaceutical component, compound A, was selected and diluted step by step according to 1:1; the concentration of a second pharmaceutical component, compound B, was fixed to IC30; based on a size of a fractional inhibitory concentration (FIC) value, the concentration of compound A was fixed, the concentration of pharmaceutical compound B was changed, and the FIC value was determined.
Fractional effects (FEs) of the two compounds are as follows: FEA = IC50 (A+B)/IC50 (A) [formula] FEB = IC50 (A+B)/IC50 (B) [formula] FIC = FEA + FEB [formula]
By analogy, all possible combinations were calculated. Table 4 Dilution concentration and fold

AChE [2] = molecular target: T1, AChE; format: binding; details: 20 µg/mL in ammonium acetate buffer (10 mM, pH = 7.4) for standards; FIGS. 4A, 4B, 5
Method: In a first step, a mobile phase, the ammonium acetate buffer (10 mM, pH = 7.4), was provided by a peristaltic pump at a flow rate of 5 µL/min and a sample was injected at a volume of 100 µL, and the process lasted for 40 min, then fractions were collected.
In a second step, the mobile phase was changed from the ammonium acetate buffer (10 mM, pH = 7.4) to methanol and provided at a flow rate of 20 µL/min and target components were dissociated from proteins, and the process lasted for 20 min, then fractions were collected.
A blank control monolithic column, Control-ICER, was set by the same operation method and the corresponding fractions were collected.
The collected fractions were blown to dryness with N2, dissolved in 100 µL of methanol, and analyzed through LC-MS.
LC-MS conditions: a chromatographic column Thermo Acclaim TM C18 (4.6 mm× 250 mm, 5 µm); mobile phases where acetonitrile was mobile phase A and 0.08% (v/v) formic acid and a 2 mM ammonium acetate solution were mobile phase B; a flow rate of 1.0 mL/min; an injection volume of 3 µL; a column temperature of 25 °C; and a detection wavelength of 280 nm. […]

AChE [3] = molecular target: T1, AChE; experiment: biochemical; details: mean ± standard deviation, repeated three times; 10 min at 37 °C, absorbance at 405 nm
Method: For the reaction system, see Table 3. The specific steps are described below.
140 µL of phosphate buffer (PBS, 0.1 mol/L, pH = 7.4), 20 µL of AChE (0.303 U/mL) and 20 µL of sample solution were added in sequence to a 96-well plate, mixed evenly, and added with 10 µL of DTNB (3.3 mM) and 10 µL of acetylthiocholine iodide (ATCI) (15 mM). They were mixed evenly and incubated for 10 min at 37 °C, then measured absorbance at 405 nm.
The sample was replaced with PBS in a blank enzyme group. The sample was replaced with PBS in a blank enzyme-free group. The enzyme solution was replaced with PBS in the sample control group.
The inhibitory rate of the sample against AChE activity is calculated by the following formula: Inhibitory rate = [1−(Asample−Asample control)/(Ablank enzyme−Ablank enzyme−free)] × 100% [formula]
The median inhibitory concentration of AChE was calculated by testing inhibitory rates at different sample concentrations. […] Table 3 Anti-AChE activity screening method

| SMILES | effect of combinations when used as the first alkaloid (AChE [1]) | IC20 (AChE [1]) [µg/mL] | IC80 (AChE [1]) [µg/mL] | IC90 (AChE [1]) [µg/mL] | retention on AChE-ICER / Control-ICER (specific binding) (AChE [2]) | IC50 (AChE [1]) [µM] | IC50 (AChE [3]) [µM] |
| --- | --- | --- | --- | --- | --- | --- | --- |
| COc1ccc2cc3[n+](cc2c1OC)CCc1cc2c(cc1-3)OCO2 [Ber, berberine] | only the irrelevant effect or the antagonistic effect | 0.26 | 24.1 | 50.2 |  |  |  |
| CCCC(=O)Nc1ccc(OCC(O)CNC(C)C)c(C(C)=O)c1 (centres unmarked) [acebutolol] |  |  |  |  | remains neither on AChE-ICER nor on enzyme-inactive Control-ICER |  |  |
| COc1cc2c(cc1O)CC[n+]1cc3c(OC)c(OC)ccc3cc1-2 [Jat, jatrorrhizine] | significant synergistic effect | 0.39 | 31.4 | 63.2 |  | 10.3 | 10.3 |
| COc1cc2c(cc1OC)-c1cc3ccc(OC)c(OC)c3c[n+]1CC2 [Pal, palmatine] | only the irrelevant effect or the antagonistic effect | 0.1 | 22.8 | 48.3 |  | 4.31 | 4.31 |
| COc1cc2c(cc1O)-c1cc3ccc(OC)c(OC)c3c[n+]1CC2 [Col, columbamine] | significant synergistic effect | 0.18 | 4.8 | 12.5 |  | 2.75 | 2.75 |
